≈ marks a conversion by molar mass, not a printed value. Where a name gives a salt, the structure may show the parent alone. Read-outs that look alike come from different tables or passages of the source.
What was measured:
[1] = cited from earlier work
[2] = intestinal regions; cited from earlier work
[3] = physchem
[4] = Solubilities of weakly basic drugs in organic acid buffers
[5] = pH 2.14

## COc1ccccc1OCCNCC(O)COc1cccc2[nH]c3ccccc3c12 (racemic) [Carvedilol]
[1]; above a pH of 9
  aqueous solubility: < 1 µg/mL
[1]; at a pH 5
  aqueous solubility: about 100 μg/mL
[1]; at a pH of 7
  aqueous solubility: about 23 μg/mL
[2]
  in vivo absorption within the intestine, decreasing order: jejunum>ileum>colon
[3]; pH 2.12, aqueous buffer
  solubility: 2510 µg/mL (≈ 6170 µM)
[3]; pH 2.28, aqueous buffer
  solubility: 1360 µg/mL (≈ 3350 µM)
[3]; pH 2.54, aqueous buffer
  solubility: 731 µg/mL (≈ 1800 µM)
[3]; pH 2.94, aqueous buffer
  solubility: 508 µg/mL (≈ 1250 µM)
[3]; pH 3.64, aqueous buffer
  solubility: 121 µg/mL (≈ 298 µM)
[3]; pH 5.46, aqueous buffer
  solubility: 105 µg/mL (≈ 258 µM)
[3]; pH 5.9, aqueous buffer
  solubility: 28 µg/mL (≈ 68.9 µM)

## O=C1CN=C(c2ccccc2Cl)c2cc([N+](=O)[O-])ccc2N1 [Clonazepam]
[4]; pH of buffer 4.8
  Solubility (mg/mL) of Clonazepam in Fumaric Acid: 0.0095 mg/mL

## OCCN(CCO)c1nc(N2CCCCC2)c2nc(N(CCO)CCO)nc(N3CCCCC3)c2n1 [Dipyridamole]
[1]; in dilute acids
  solubility (in words): soluble
[1]; in water, neutral and alkaline buffers
  solubility (in words): practically insoluble

## Cc1nccn1CC1CCc2c(c3ccccc3n2C)C1=O (stereo not shown) [Ondansetron Hydrochloride, Ondansetron hydrochloride]
[1]; at a pH of 6.8
  solubility (in words): practically insoluble
[1]; at acidic pHs
  solubility (in words): fairly soluble
[5]
  Solubility of Ondansetron Hydrochloride: 27000 µg/mL
[4]; fumaric acid 0.0025 mg/mL, start pH 4.15, end pH 4.33
  Solubility of Ondansetron Hydrochloride: 26100 µg/mL
[4]; fumaric acid 0.01 mg/mL, start pH 3.64, end pH 4.05
  Solubility of Ondansetron Hydrochloride: 26100 µg/mL
[4]; fumaric acid 0.25 mg/mL, start pH 2.79, end pH 2.75
  Solubility of Ondansetron Hydrochloride: 26200 µg/mL
[4]; fumaric acid 1 mg/mL, start pH 2.48, end pH 2.40
  Solubility of Ondansetron Hydrochloride: 26100 µg/mL
[4]; fumaric acid 5 mg/mL, start pH 2.13, end pH 2.01
  Solubility of Ondansetron Hydrochloride: 26900 µg/mL

From patent US20070196491A1, “DRUG DELIVERY SYSTEMS COMPRISING WEAKLY BASIC DRUGS AND ORGANIC ACIDS” (EURAND, INC., priority 2006, published 2007)
